# Test results as given in ChEMBL document CHEMBL2321822, “Synthesis and biological evaluation of 1-(6-methylpyridin-2-yl)-5-(quinoxalin-6-yl)-1,2,3-triazoles as transforming growth factor-β type 1 receptor kinase inhibitors” (Bioorg Med Chem Lett, 2013).
# Assays:
# TGF-beta receptor type-1 = target: T1, TGF-beta receptor type-1 (Homo sapiens, UniProt P36897); assay: Inhibition of human ALK5 in presence of 1 microM ATP
# T1 sequence (P36897 whole entry): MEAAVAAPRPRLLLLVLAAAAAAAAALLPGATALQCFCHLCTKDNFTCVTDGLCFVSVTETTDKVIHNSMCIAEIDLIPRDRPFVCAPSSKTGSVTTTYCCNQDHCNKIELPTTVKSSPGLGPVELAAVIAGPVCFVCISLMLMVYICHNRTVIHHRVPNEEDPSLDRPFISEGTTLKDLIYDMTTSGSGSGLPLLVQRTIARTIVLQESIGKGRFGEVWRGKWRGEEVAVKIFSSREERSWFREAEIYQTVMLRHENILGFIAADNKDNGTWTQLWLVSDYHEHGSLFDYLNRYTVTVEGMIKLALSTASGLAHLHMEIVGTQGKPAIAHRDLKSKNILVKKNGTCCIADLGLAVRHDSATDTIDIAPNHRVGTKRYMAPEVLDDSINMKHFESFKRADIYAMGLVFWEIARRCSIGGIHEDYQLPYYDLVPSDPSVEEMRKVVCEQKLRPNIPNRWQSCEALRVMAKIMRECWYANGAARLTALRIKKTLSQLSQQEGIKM
# [1] = target: T2, TGF-beta receptor type-1 (Homo sapiens) (UniProt P36897); assay: Inhibition of human ALK5 at 10 uM in presence of 1 microM ATP relative to control
# T2 sequence (whole entry): T1 sequence (P36897 whole entry)
# [2] = target: Mitogen-activated protein kinase 14 (Homo sapiens) (UniProt Q16539); assay: Inhibition of human P38alpha/MAPK at 10 uM in presence of 1 microM ATP
# Chain of Mitogen-activated protein kinase 14 (Homo sapiens) (Q16539 whole entry): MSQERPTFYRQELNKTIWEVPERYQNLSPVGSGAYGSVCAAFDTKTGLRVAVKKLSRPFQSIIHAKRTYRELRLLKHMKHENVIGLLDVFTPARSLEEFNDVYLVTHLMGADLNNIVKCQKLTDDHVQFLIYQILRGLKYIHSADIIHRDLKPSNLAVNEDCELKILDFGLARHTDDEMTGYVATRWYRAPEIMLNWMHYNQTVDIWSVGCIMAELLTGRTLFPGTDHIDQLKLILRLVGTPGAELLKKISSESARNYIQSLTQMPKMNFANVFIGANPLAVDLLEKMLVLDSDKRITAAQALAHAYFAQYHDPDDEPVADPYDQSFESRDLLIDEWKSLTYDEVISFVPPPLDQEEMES
Structure (SMILES),IC50 (TGF-beta receptor type-1),inhibition [1],inhibition [2]
COc1ccc(-c2nnn(-c3cccc(C)n3)c2-c2ccc3nccnc3c2)cc1,,0.26%,
Cc1cccc(-n2nnc(Cc3ccccc3)c2-c2ccc3nccnc3c2)n1,4.69 µM,80.8%,-1.94%
Cc1ccc(-c2nnn(-c3cccc(C)n3)c2-c2ccc3nccnc3c2)cc1,,20.7%,-5.07%
COc1cc(OC)cc(-c2nnn(-c3cccc(C)n3)c2-c2ccc3nccnc3c2)c1,,23.4%,-6.87%
Cc1cccc(-n2nnc(CCC(C)C)c2-c2ccc3nccnc3c2)n1,8.6 µM,73.1%,-5.91%
Cc1cccc(-n2nnc(-c3ccccc3)c2-c2ccc3nccnc3c2)n1,,-4.94%,31.2%

# Now from value to molecule:
IC50 (TGF-beta receptor type-1),inhibition [1],inhibition [2],Structure (SMILES)
50.8 µM,20.4%,,Cc1cccc(-n2nnc(CCCCO)c2-c2ccc3nccnc3c2)n1
,8.19%,30.9%,Cc1cccc(-n2nnc(-c3ccc(F)cc3)c2-c2ccc3nccnc3c2)n1
,17.4%,40.4%,Cc1cccc(-n2nnc(-c3cc(F)cc(F)c3)c2-c2ccc3nccnc3c2)n1
7.38 µM,70%,-2.52%,CCCCc1nnn(-c2cccc(C)n2)c1-c1ccc2nccnc2c1
34.5 µM,34.9%,18.4%,COc1ccccc1-c1nnn(-c2cccc(C)n2)c1-c1ccc2nccnc2c1
